Ends that are not written are not given here. T(GalNAc) = N-acetylgalactosamine-glycosylated threonine
Experiments:
C1Gal-T2 = experiment: Screening for acceptor substrate of C1Gal-T2 (UDP-[14C]-Gal transfer, TLC, LSC-C1Gal-T2 cell extract); assay type: biochemical, human; conditions: LSC-C1Gal-T2 cell extract as enzyme source; acceptor substrate 10 nmol; 37° C. for two hours
Procedure: The reaction system below was used to investigate C2 acceptor substrates. To investigate whether pNp-α-GalNAc or pNp-β-GalNAc (both from Sigma) functioned as acceptors, each was used as an “acceptor substrate” in the following reaction solution:
The reaction solution (the parentheses show final concentrations) comprised acceptor substrate (10 nmol), HEPES buffer (pH 7.4) (14 mM), MnCl2 (12.5 mM), UDP-Gal (250 μM), and UDP-[^14C]-Gal (175 nCi). 5 μl of enzyme solution was added to this reaction solution, followed by the addition of H2O to a total volume of 20 μl. The enzyme solution was prepared by suspending cells (5×10^6 cells) in 50 ml of cell lysing buffer (HEPES buffer (pH 7.4) (20 mM), NaCl (154 mM) and TritonX-100 (1%)), incubating at 4° C. for 15 minutes in a water bath type ultrasonic homogenizer, centrifuging, and then obtaining the supernatant for the enzyme solution. The aforementioned reaction mixture was reacted at 37° C. for two hours. Following completion of the reaction, 200 μl of H2O was added to the mixture, which was gently centrifuged to obtain the supernatant. […] After drying the plate, the amount of radioactivity taken up by the product was measured using the Bio Image Analyzer FLA3000 (Fuji Photo Film).

C1Gal-T3 = target: T1, C1Gal-T3 (Homo sapiens, UniProt P0DN25); experiment: Galactose transferring activity of C1Gal-T3 recombinant enzyme on N-acetylgalactosaminyl peptides; assay type: biochemical; conditions: C1Gal-T3 recombinant enzyme expressed in COS-1 cells as enzyme source
T1 construct: a carboxyl terminal region (enzyme activity region) minus the transmembrane region at the amino terminus; preprotrypsin secretion signal (N); made in house; host or cells: COS-1 cells, transient transfection with pFLAG-C1Gal-T3; purified from culture supernatant on anti-FLAG M1 agarose
T1 sequence (P0DN25 30-315 limits assumed): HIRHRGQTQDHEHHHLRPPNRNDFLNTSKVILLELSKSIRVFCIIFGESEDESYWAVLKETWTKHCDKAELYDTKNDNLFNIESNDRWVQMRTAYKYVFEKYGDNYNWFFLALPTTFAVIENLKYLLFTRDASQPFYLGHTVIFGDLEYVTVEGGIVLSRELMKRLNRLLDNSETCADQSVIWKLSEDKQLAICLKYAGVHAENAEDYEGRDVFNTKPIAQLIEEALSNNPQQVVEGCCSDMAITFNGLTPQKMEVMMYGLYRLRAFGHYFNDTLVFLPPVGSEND
Procedure: The reaction solution (parentheses indicate final concentrations) comprised acceptor substrate (5 pmol), MES buffer (pH 6.5) (100 mM), MnCl2 (20 mM), ATP (2 mM), and UDP-Gal (0.5 mM). 5 μl of […] enzyme source was added to this reaction solution, which was then brought to a total volume of 20 μl by adding H2O.
The above reaction mixture was reacted at 37° C. for eight hours. After completion of the reaction, 60 μl of H2O was added, and the mixture was gently centrifuged to acquire the supernatant. This supernatant was purified through an Ultra Free MC Column (Millipore), and 30 μl of thus-purified solution was analyzed using high-performance liquid chromatography (HPLC). CAPCELL PAK C18 UG120 (Shiseido) was used as the column, 0.1% trifluoroacetic acid was used as the separation buffer, and the elution was carried out over an acetonitrile concentration gradient of 15-30%. The flow rate was 1 ml/minute.
Galactose transferring activity was measured using the C1Gal-T3 recombinant enzyme expressed in COS-1 cells as an enzyme source, and using the N-acetylgalactosaminyl peptides used in Example 5 as acceptor substrates.

Compound | reaction as acceptor substrate (galactose transfer from UDP-Gal) (C1Gal-T2) | galactose transferring activity (C1Gal-T3)
CC(=O)N[C@H]1[C@@H](Oc2ccc([N+](=O)[O-])cc2)O[C@H](CO)[C@H](O)[C@@H]1O [pNp-α-GalNAc] | reacted strongly | –
CC(=O)N[C@H]1[C@H](Oc2ccc([N+](=O)[O-])cc2)O[C@H](CO)[C@H](O)[C@@H]1O [pNp-β-GalNAc] | did not react | –
VPST(GalNAc)PPTPSPSTPPTPSPS ({Val-Pro-Ser-T(GalNAc)}-PPTPSPSTPPTPSPS) [4-GalNAc-HP, human IgA1 hinge peptide with GalNAc on the 4th residue] | – | could be confirmed

— patent US20050221422A1, “Novel galactose transferases, peptides thereof and nucleic acid encoding the same” (priority 2002, published 2005)
